In patent US7648976B2, “17-allylamino-17-demethoxygeldanamycin polymorphs and formulations” (Bristol-Myers Squibb Company, priority 2005, dated 2010):
Entries after “also recorded” stand apart in the source; their conditions may differ.

Legend:
[1] = Polymorph stability to heat and humidity (VT-XRPD, DSC); type: physicochemical; settings: for polymorph conversion upon heating: VT-XRPD and/or DSC
Text: 17-AAG is polymorphic and exists in multiple forms, many of which are solvates. We have generated many polymorphs using a variety of solvents and crystallization conditions. The polymorphs were characterized by techniques such as XRPD, DSC, infrared spectroscopy, gravimetric vapor sorption (GVS), ^1H-NMR, polarized light microscopy (PLM), and thermogravimetric analysis (TGA). We grouped the polymorphs according to similarities in XRPD data, with summary descriptions provided below. Polymorphs that are solvated are referred to by group and solvate names, as in “Polymorph A (DMF solvate)” or “the DMF solvate of Polymorph A”. • Group A The N,N-dimethylformamide (DMF), ethyl acetate (EtOAc), and methyl isobutyl ketone (MIBK) solvates of Polymorph A all have XRPD peaks at about 5.6, 7.0, 9.2, 11.2, 16.4, and 17.9 degrees 2θ (the first four being its lowest angle peaks). […] It has characteristic XRPD peaks at about 6.4, 8.3, 9.6, 13.3, 14.9, 15.7, 19.1, and 20.8 degrees 2θ. […] Typically, this polymorph group is prepared using high boiling solvents. After melting, these polymorphs exist in a molten state until decomposition at about 220° C.

[2] = Effect of 17-AAG starting polymorph on formulation properties; type: physicochemical; settings: non-sterile formulation made by procedure of Example 7 from the named polymorph
Procedure: Particle size distribution was determined by dynamic light scattering with a Nanotract 250 particle size analyzer (Microtrac Inc., Montgomeryville, Pa.). The Nanotrac 250 settings were configured for measuring the PSD (volume distribution) of “Irregular” Shaped particles of “Absorbing” Transparency in a fluid with characteristics of water (Refractive Index: 1.333, Viscosity at 20° C.: […], Viscosity at 30° C.: 1.002 cP). A background signal was measured using 5% Dextrose for Injection (D5W). Then, the nanoparticle formulation was diluted 10 to 20-fold into D5W and mixed well. The PSD of the diluted sample was measured as the average of five replicate 5-minute analyses and reported in histogram format as a function of particle size. While the PSD reflects the range and frequency of particle sizes, other characteristics of the PSD were used for quantitation. The D50 is the volume percentile corresponding to the particle size larger than 50% of the total particle volume (i.e. the median particle size). The D90 is the volume percentile corresponding to the particle size larger than 90% of the total particle volume and is a measure of the largest particles in the dispersion. The particle size distribution measured by dynamic light scattering techniques was supplemented with SEM images, acquired by techniques established in the art. The particle sizes determined via the SEM images were in general agreement with those determined by light scattering.
17-AAG (purified Polymorph C, 1.25 g) was mixed with WFI (3.62 g) and a solution of polysorbate 80 (2.5 g of a 10 weight % solution in WFI), an aqueous suspension of soybean phosphatidylcholine (0.63 g of a 10 weight % suspension in WFI), and a solution of sucrose (10 g of a 25 weight % solution in WFI). The mixture was loaded into the reservoir of a Microfluidics Model 110S microfluidizer containing 7 g WFI set up as described in the previous example and processed under the same conditions. This procedure yielded a formulation having a 17-AAG concentration of approximately 50 mg/mL in an aqueous medium having approximately 1.0 weight % polysorbate 80, 0.25 weight % soy phosphatidylcholine, and 10 weight % sucrose, with a 17-AAG particle size distribution of below 1 micron with median particle size of 300 nm volume distribution.
Non-sterile formulations of 17-AAG were made with other polymorphs using the procedure of Example 7 and compared against formulations made with purified Polymorph C.

For `C=CCNC1=C2C[C@@H](C)C[C@H](OC)[C@H](O)[C@@H](C)/C=C(\C)[C@H](OC(N)=O)[C@@H](OC)/C=C\C=C(/C)C(=O)NC(=CC1=O)C2=O` [Polymorph B, 17-allylamino-17-demethoxygeldanamycin], the “polymorph conversion upon heating” value [1] was “converted to Polymorph C”, the Consistency ([2]; listed as B (1st run)) was “Highly viscous” and the D50 ([2]; listed as B (1st run)) was 1.8 μm. The Consistency ([2]; listed as B (2nd run)) was “Highly viscous” and the D50 ([2]; listed as B (2nd run)) was 2.0 μm.

For `C=CCNC1=C2C[C@@H](C)C[C@H](OC)[C@H](O)[C@@H](C)/C=C(\C)[C@H](OC(N)=O)[C@@H](OC)/C=C\C=C(/C)C(=O)NC(=CC1=O)C2=O` [Polymorph D (dichloromethane solvate), 17-allylamino-17-demethoxygeldanamycin], the “polymorph conversion upon heating” value [1] was “converts to Polymorph C”.

With `C=CCNC1=C2C[C@@H](C)C[C@H](OC)[C@H](O)[C@@H](C)/C=C(\C)[C@H](OC(N)=O)[C@@H](OC)/C=C\C=C(/C)C(=O)NC(=CC1=O)C2=O` [Polymorph C, 17-allylamino-17-demethoxygeldanamycin] the “polymorph conversion upon heating” value [1] was “does not convert to any other polymorph upon heating”, the “relative stability among 17-AAG polymorphs” value ([1]; moisture/humidity and heat) was “the most stable to moisture and heat; also recorded: the most stable to heat and humidity” and the Consistency [2] was “Water-like”. The D50 [2] was 0.28 μm and the Remarks [2] was “Stable nanoparticle”.

With `C=CCNC1=C2C[C@@H](C)C[C@H](OC)[C@H](O)[C@@H](C)/C=C(\C)[C@H](OC(N)=O)[C@@H](OC)/C=C\C=C(/C)C(=O)NC(=CC1=O)C2=O` [Amorphous, 17-allylamino-17-demethoxygeldanamycin] the Consistency ([2]; listed as Amorphous (1st run)) was “Paste-like”, the Remarks ([2]; listed as Amorphous (1st run)) was “Does not form stable” and the Consistency ([2]; listed as Amorphous (2nd run)) was “Paste-like”. The Remarks ([2]; listed as Amorphous (2nd run)) was “Does not form stable”.

In the case of `C=CCNC1=C2C[C@@H](C)C[C@H](OC)[C@H](O)[C@@H](C)/C=C(\C)[C@H](OC(N)=O)[C@@H](OC)/C=C\C=C(/C)C(=O)NC(=CC1=O)C2=O` [Polymorph E, 17-allylamino-17-demethoxygeldanamycin], the “polymorph conversion under humidity” value ([1]; 40° C. and 70% relative humidity (RH)) is reported as “conversion to Polymorph C is observed”.

With `C=CCNC1=C2C[C@@H](C)C[C@H](OC)[C@H](O)[C@@H](C)/C=C(\C)[C@H](OC(N)=O)[C@@H](OC)/C=C\C=C(/C)C(=O)NC(=CC1=O)C2=O` [Polymorph A, 17-allylamino-17-demethoxygeldanamycin] the “polymorph conversion upon heating” value [1] was “converted to the more stable Polymorph C”.

For `C=CCNC1=C2C[C@@H](C)C[C@H](OC)[C@H](O)[C@@H](C)/C=C(\C)[C@H](OC(N)=O)[C@@H](OC)/C=C\C=C(/C)C(=O)NC(=CC1=O)C2=O` [Polymorph G, 17-allylamino-17-demethoxygeldanamycin], the “polymorph conversion upon heating” value [1] was “Heating converts Polymorph G to Polymorph C”, the Consistency [2] was “Water-like” and the D50 [2] was 0.36 μm.
